Results taken from PubChem BioAssay (NCI).
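Grown in 96-well plates, cells were treated for 48 hours with each compound at five concentrations. Insufficient inhibition: endpoint recorded as highest concentration tested. Here, GI50 denotes the concentration required for 50% inhibition of growth. TGI: concentration producing complete growth inhibition.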

Columns and labels:
Assay in all cases: NCI tumour cell line growth inhibition, 48 h
A549 NSCLC = test system: A549 NSCLC
MDA-MB-231 breast = test system: MDA-MB-231 breast
PC-3 prostate = test system: PC-3 prostate
NCI/ADR-RES ovarian = test system: NCI/ADR-RES ovarian
HS 578T breast = test system: HS 578T breast
LOX IMVI melanoma = test system: LOX IMVI melanoma
SK-MEL-2 melanoma = test system: SK-MEL-2 melanoma
NCI-H23 lung = test system: NCI-H23 lung
RXF 393 renal = test system: RXF 393 renal
MOLT-4 leukemia = test system: MOLT-4 leukemia
HOP-62 NSCLC = test system: HOP-62 NSCLC
MCF7 breast = test system: MCF7 breast
SR leukemia = test system: SR leukemia
OVCAR-3 ovarian = test system: OVCAR-3 ovarian
HL-60(TB) leukemia = test system: HL-60(TB) leukemia
SF-295 CNS = test system: SF-295 CNS
A498 renal = test system: A498 renal
SN12C renal = test system: SN12C renal
CCRF-CEM leukemia = test system: CCRF-CEM leukemia
K-562 leukemia = test system: K-562 leukemia
MALME-3M melanoma = test system: MALME-3M melanoma
SK-OV-3 ovarian = test system: SK-OV-3 ovarian
BT-549 breast = test system: BT-549 breast
COLO 205 colon = test system: COLO 205 colon
IGROV1 ovarian = test system: IGROV1 ovarian
RPMI-8226 leukemia = test system: RPMI-8226 leukemia
ACHN renal = test system: ACHN renal
SW-620 colon = test system: SW-620 colon
DU-145 prostate = test system: DU-145 prostate
SF-268 CNS = test system: SF-268 CNS
OVCAR-8 ovarian = test system: OVCAR-8 ovarian
NCI-H522 lung = test system: NCI-H522 lung
TK-10 renal = test system: TK-10 renal
OVCAR-5 ovarian = test system: OVCAR-5 ovarian
SF-539 CNS = test system: SF-539 CNS
UO-31 renal = test system: UO-31 renal
SK-MEL-5 melanoma = test system: SK-MEL-5 melanoma
UACC-257 melanoma = test system: UACC-257 melanoma
MDA-MB-435 = test system: MDA-MB-435
HT29 colon = test system: HT29 colon
SNB-19 CNS = test system: SNB-19 CNS
HOP-92 NSCLC = test system: HOP-92 NSCLC
HCT-116 colon = test system: HCT-116 colon
NCI-H460 lung = test system: NCI-H460 lung
CAKI-1 renal = test system: CAKI-1 renal
U251 CNS = test system: U251 CNS
NCI-H226 lung = test system: NCI-H226 lung
OVCAR-4 ovarian = test system: OVCAR-4 ovarian
SK-MEL-28 melanoma = test system: SK-MEL-28 melanoma
T-47D breast = test system: T-47D breast
SNB-75 CNS = test system: SNB-75 CNS
KM12 colon = test system: KM12 colon
UACC-62 melanoma = test system: UACC-62 melanoma
786-0 renal = test system: 786-0 renal
HCC-2998 colon = test system: HCC-2998 colon
HCT-15 colon = test system: HCT-15 colon

CCOc1c(Cl)cc(CNC(C)C(O)c2ccccc2)cc1OC (configuration not stated)
GI50 (A549 NSCLC): 43.9 µM | TGI (A549 NSCLC): > 100 µM | GI50 (MDA-MB-231 breast): 15.6 µM | TGI (MDA-MB-231 breast): 54.7 µM | GI50 (PC-3 prostate): 30.7 µM | TGI (PC-3 prostate): > 100 µM | GI50 (NCI/ADR-RES ovarian): 20.2 µM | TGI (NCI/ADR-RES ovarian): 59.1 µM | GI50 (HS 578T breast): 23.5 µM | TGI (HS 578T breast): 93 µM | GI50 (LOX IMVI melanoma): 17 µM | TGI (LOX IMVI melanoma): 30.7 µM | GI50 (SK-MEL-2 melanoma): 21.4 µM | TGI (SK-MEL-2 melanoma): 39 µM | GI50 (NCI-H23 lung): 31.3 µM | TGI (NCI-H23 lung): > 100 µM | GI50 (RXF 393 renal): 16.4 µM | TGI (RXF 393 renal): 52.1 µM | GI50 (MOLT-4 leukemia): 26 µM | TGI (MOLT-4 leukemia): 85.7 µM | GI50 (HOP-62 NSCLC): 31 µM | TGI (HOP-62 NSCLC): > 100 µM | GI50 (MCF7 breast): 17.8 µM | TGI (MCF7 breast): 45.2 µM | GI50 (SR leukemia): 17.1 µM | TGI (SR leukemia): 52.5 µM | GI50 (OVCAR-3 ovarian): 40.1 µM | TGI (OVCAR-3 ovarian): > 100 µM | GI50 (HL-60(TB) leukemia): 21.1 µM | TGI (HL-60(TB) leukemia): 46.1 µM | GI50 (SF-295 CNS): 16.4 µM | TGI (SF-295 CNS): 34.6 µM | GI50 (A498 renal): 0.244 µM | TGI (A498 renal): 26.4 µM | GI50 (SN12C renal): 38.7 µM | TGI (SN12C renal): > 100 µM | GI50 (CCRF-CEM leukemia): 35.6 µM | TGI (CCRF-CEM leukemia): > 100 µM | GI50 (K-562 leukemia): 20.9 µM | TGI (K-562 leukemia): 68.9 µM | GI50 (MALME-3M melanoma): 16.6 µM | TGI (MALME-3M melanoma): 33.6 µM | GI50 (SK-OV-3 ovarian): 41.1 µM | TGI (SK-OV-3 ovarian): > 100 µM | GI50 (BT-549 breast): 41.1 µM | TGI (BT-549 breast): > 100 µM | GI50 (COLO 205 colon): 19 µM | TGI (COLO 205 colon): 35.9 µM | GI50 (IGROV1 ovarian): 70.6 µM | TGI (IGROV1 ovarian): > 100 µM | GI50 (RPMI-8226 leukemia): 25.5 µM | TGI (RPMI-8226 leukemia): 57.7 µM | GI50 (ACHN renal): 23.7 µM | TGI (ACHN renal): > 100 µM | GI50 (SW-620 colon): 22.8 µM | TGI (SW-620 colon): 58.1 µM | GI50 (DU-145 prostate): 37.6 µM | TGI (DU-145 prostate): > 100 µM | GI50 (SF-268 CNS): 42.1 µM | TGI (SF-268 CNS): > 100 µM | GI50 (OVCAR-8 ovarian): 19.8 µM | TGI (OVCAR-8 ovarian): 48 µM | GI50 (NCI-H522 lung): 20.7 µM | TGI (NCI-H522 lung): 43.3 µM | GI50 (TK-10 renal): 31.7 µM | TGI (TK-10 renal): > 100 µM | GI50 (OVCAR-5 ovarian): 24.3 µM | TGI (OVCAR-5 ovarian): 96.4 µM | GI50 (SF-539 CNS): 16.8 µM | TGI (SF-539 CNS): 34 µM | GI50 (UO-31 renal): 18 µM | TGI (UO-31 renal): 89.6 µM | GI50 (SK-MEL-5 melanoma): 16.6 µM | TGI (SK-MEL-5 melanoma): 30.6 µM | GI50 (UACC-257 melanoma): 19.1 µM | TGI (UACC-257 melanoma): 43.1 µM | GI50 (MDA-MB-435): 16.2 µM | TGI (MDA-MB-435): 32.3 µM | GI50 (HT29 colon): 18.6 µM | TGI (HT29 colon): 45.5 µM | GI50 (SNB-19 CNS): 32.7 µM | TGI (SNB-19 CNS): > 100 µM | GI50 (HOP-92 NSCLC): 12.9 µM | TGI (HOP-92 NSCLC): 48.5 µM | GI50 (HCT-116 colon): 19.2 µM | TGI (HCT-116 colon): 43.1 µM | GI50 (NCI-H460 lung): 18.3 µM | TGI (NCI-H460 lung): 35.9 µM | GI50 (CAKI-1 renal): 15.1 µM | TGI (CAKI-1 renal): 54.7 µM | GI50 (U251 CNS): 19.5 µM | TGI (U251 CNS): 46.1 µM | GI50 (NCI-H226 lung): 33.5 µM | TGI (NCI-H226 lung): > 100 µM | GI50 (OVCAR-4 ovarian): 21.6 µM | TGI (OVCAR-4 ovarian): 87.4 µM | GI50 (SK-MEL-28 melanoma): 15.3 µM | TGI (SK-MEL-28 melanoma): 30.8 µM | GI50 (T-47D breast): 16.5 µM | TGI (T-47D breast): 46.5 µM | GI50 (SNB-75 CNS): 12.7 µM | TGI (SNB-75 CNS): 46.9 µM | GI50 (KM12 colon): 22.5 µM | TGI (KM12 colon): 49.2 µM | GI50 (UACC-62 melanoma): 17.9 µM | TGI (UACC-62 melanoma): 38.9 µM | GI50 (786-0 renal): 16.1 µM | TGI (786-0 renal): 38.9 µM | GI50 (HCC-2998 colon): 16.6 µM | TGI (HCC-2998 colon): 32.7 µM | GI50 (HCT-15 colon): 21.9 µM | TGI (HCT-15 colon): 67.4 µM
